According to patent US8258188B2 (priority 2004, dated 2012):
Values joined by “and” are separate entries in the source; they are usually repeats but may differ in a detail not shown here. Identical values can stand only once. Like-named read-outs stand apart in the source and are kept apart here. Marks after values point to notes of the source that are not given here.

Tests used:
[1] = system: C57BL6 mice challenged with 2.5% DSS; experiment: DSS colitis model of experimental IBD (Experiment 1); type: in vivo
[2] = 0.6 g punicic acid/100 g food, 38 days, oral
Text: All specimens were generally labeled with the following information: 1) mouse number; 2) date collected; 3) experiment number; 4) type of solvent; and 5) tissue type.

[3] = system: colonic lymph nodes; details: 0.6 g punicic acid/100 g food, least square mean ± SEM
Method: (§1) A total of twenty-two C57BL6 mice were used in Experiment 2. All mice were born on Nov. 23, 2003, weaned on Dec. 16, 2003 and fed the experimental diets from Dec. 19, 2003 to Jan. 15, 2004. […] Mice were weighed on a weekly basis. Mice were euthanized. Blood was collected from each mouse for generating serum, which was stored at −20° C. Thymus, spleen and colonic lymph nodes were harvested, weighed and collected in cRPMI in sterile conditions. Colon and liver specimens were collected in RNA later (Ambion Inc., Austin, Tex.) and frozen at −80° C. for gene expression analysis. Brain, kidney, liver, colon and ileum were also collected in a 10% buffered neutral formalin solution and processed as described in experiment 1 for histological evaluation. The remaining portion of the carcass was stored in 50-mL, conical tubes and frozen at −20° C. for body composition and fatty acid analysis. All specimens were generally labeled with the following information: 1) mouse number; 2) date collected; 3) experiment number; 4) type of solvent; and 5) tissue type. Tissue slides were examined in an Olympus microscope (Olympus America Inc., Dulles, Va.). Images were captured using the FlashBus FBG software (Integral Technologies, Indianapolis, Ind.) and processed in Adobe Photoshop Elements 2.0 (Adobe Systems Inc., San Jose, Calif.).
(§2) Spleens, thymuses and colonic lymph nodes were collected in complete RPMI on ice. Single-cell suspensions were obtained from each tissue by gently disrupting the tissue between two frosted ends of two glass slides on a petri dish containing 3 mL of cRPMI. The single-cell suspension was transferred from the petri dish to a 15-mL polypropylene tube (Fisher, Atlanta, Ga.) and washed by centrifuging in an Eppendorf 5810 R centrifuge (Westbury, N.Y.) at 200×g for 5 minutes at 4° C. The supernatant was discarded by decantation of the tube. The cell pellet was broken by gently tapping the tube against a solid surface. The total numbers of spleenocytes, thymocytes and colonic lymph node lymphocytes in each mouse were enumerated in a Z1 Coulter Single Particle Counter (Miami, Fla.). Briefly, 10-mL of isoton II diluent solution (Beckman Coulter, Miami, Fla.) were added into a counting vial, followed by 40 μL of the cell suspension, 4 drops of Zapaglobin (Beckman Coulter, Miami Fla.), and 10 additional mL of the isoton solution. The volume in which the cells were resuspended was assessed using a 5-mL, sterile pipette. The concentration of cells/mL and the total volume in each tube were used to determine the total amount of cells in each tissue and mouse.
(§3) A description of the uses of flow cytometry was provided in Experiment 1. Splenocyte suspensions were freed of erythrocytes by osmotic lysis (adding 4.5 mL of sterile deionized water for 1 to 2 seconds and then adding 0.5 mL of 10× PBS to make 1× PBS solution). Cells were washed again by centrifuging in an Eppendorf 5810 R centrifuge (Westbury, N.Y.) at 200×g for 5 minutes at 4° C. The supernatant was discarded by decantation of the tube. The cell pellet was broken by gently tapping the tube against a solid surface. FACS buffer (1 mL) was added in each tube. Splenocytes, thymocytes and colonic lymph node-derived mononuclear cells were enumerated in a Z1 Coulter Single Particle Counter (Miami, Fla.), adjusted to 2×10^6 cells/mL. Splenocytes, thymocytes, and colonic lymph nodes were analyzed for expression of CD4, CD8, CD3, TCRalphabeta, TCRgammadelta and CD19 molecules by flow cytometry as previously described (Bassaganya-Riera et al. 2001; Bassaganya-Riera et al. 2002; Bassaganya-Riera et al. 2003). Briefly, a volume of 100 μl of the splenocyte, thymocyte, and colonic lymph node lymphocyte suspension was added in to a round-bottomed microtiter plate (Becton Dickinson, Lincoln Park, N.J.) and stained with 50 μl of the primary antibody solutions in FACS buffer.

[4] = system: spleen; details: 0.6 g punicic acid/100 g food; least square mean ± SEM
Method: as §1, §2, §3

[5] = system: thymus; details: 0.6 g punicic acid/100 g food; least square mean ± SEM
Method: as §1, §2, §3

[6] = system: lymph node-derived lymphocytes
Method: (§4) cRPMI medium was prepared as shown above. Wells of 96-well flat-bottomed microtiter plates (Becton Dickinson, Lincoln Park, N.J.) were seeded with 2×10^5 mononuclear cells in a total volume of 200 μl per well. Wells contained either concanavalin A (5 μg/ml, Con-A; Sigma), or medium alone (non-stimulated). Plates were incubated for 5 days at 37° C. in 5% CO2 humidified atmosphere. After 5 days, 0.5 μCi of methyl-[^3H] thymidine (specific radioactivity 6.7 Ci mmol^−1; Amersham Life Science, Arlington Heights, Ill.) in 10 μl of medium was added to each well and plates incubated for an additional 20 h. Well contents were harvested onto fiber filters with a PHD cell harvester (Skatron Instruments Inc., Sterling, Va.) and incorporated radioactivity measured by liquid scintillation counting (Beckman Instruments, Schaumburg, Ill.). Samples were run in triplicate and stimulation indices (SI) calculated by dividing counts min^−1 of stimulated wells by counts min^−1 from non-stimulated wells.
(§5) Statistical analysis was performed by analysis of variance (ANOVA). […] Differences with a probability value (P<0.05) were considered statistically significant.

[7] = system: splenocytes
Method: as §4, §5

[8] = system: C57BL6 mice fed regular or high fat diets; details: day 78, least squares mean
Text: (§6) In Western countries, Metabolic Syndrome or Syndrome X (i.e., diabetes, obesity, cardiovascular disease, hypertension and hyperlipidemia) is on a steady rise. […] A total of fifty C57BL6 mice were used in experiment 4. […] These diets are defined as regular diets and were formulated to be isocaloric between treatment groups. […] The high fat diets were also formulated to be isocaloric between treatment groups. The remaining mice within each group (n=5) were fed the regular diets. On day 78 of the experiment, mice were killed, blood was collected and immediately analyzed for fasting glucose concentrations by using the Accu-Check Instant Plus System (Roche Diagnostics Corporation, Indianapolis, Ind.) or stored for subsequent analysis of insulin concentrations in plasma. Abdominal white adipose tissue and interscapular brown adipose tissue were collected, weighed and stored at −80° C. for RNA analyses. Liver, lungs, kidneys, pancreas and heart were examined for macroscopic abnormalities (gross lesions), fixed in phosphate-buffered formalin (10%) and processed as described in experiment 1 for histological evaluation. All specimens were generally labeled with the following information: 1) mouse number; 2) date collected; 3) experiment number; 4) type of solvent; and 5) tissue type.
Serum insulin concentrations were determined by using commercially available enzyme-linked immunosorbent assay kits (Linco Research, St. Charles, Mo.).
Data were analyzed by analysis of variance (ANOVA). The ANOVA was performed by using the general linear model procedure of SAS (SAS Institute Inc., Cary, N.C.) as previously described (Bassaganya-Riera et al. 2004). Differences with probability value (P<0.05) were considered significant.

[9] = system: C57BL6 mice fed regular or high fat diets; details: day 78, intraperitoneal D-glucose after 14 hours fast
Text: as §6
A glucose tolerance test was conducted on day 78 of the experiment. Animals were fasted overnight (14 hours).

[10] = punicic acid-supplemented diets, 78 days
Text: as §6

[11] = system: splenocytes stimulated with VR-1469 influenza virus antigens
[12] = 105-day dietary supplementation, 0.6 g punicic acid/100 g food
[13] = 7-day challenge with 2.5% DSS, grade 0 to 4, least square mean ± SEM
[14] = concanavalin A 5 μg/ml, cells from mice fed 0.6 g punicic acid/100 g food
[15] = counts of Con A-stimulated wells divided by counts of non-stimulated wells
[16] = non-stimulated, cells from mice fed 0.6 g punicic acid/100 g food

CCCC\C=C/C=C/C=C\CCCCCCCC(=O)O [punicic acid]
start of rectal bleeding, on average ([1]; 0.6 g punicic acid/100 g food, 2.5% DSS challenge): 7 day of the DSS challenge
mortality rate associated with colonic inflammation ([1]; 0.6 g punicic acid/100 g food, by day 6 of the 2.5% DSS challenge): 0%
Histological score: Crypt Damage [1, 13]: 0.33 ± 0.26
Histological score: Epithelial Erosion [1, 13]: 0.00 ± 0.00
Histological score: Inflammatory Cell Infiltration [1, 13]: 0.50 ± 0.17
Histological score: Metaplasia/Hyperplasia [1, 13]: 0.50 ± 0.28
Histological score: Mucosal Thickness [1, 13]: 1.83 ± 0.24
Histological score: Vascular Changes [1, 13]: 0.50 ± 0.35
colitis-associated disease ([1]; diet fed 32 days prior to 7-day DSS challenge (2.5%, wt/vol)): improved
average colon weights ([1]; following the DSS challenge): 0.153 grams
average macroscopic score in colons (scale from 0 to 3) ([1]; following the DSS challenge): 1.4
histopathological examination of H&E-stained slides of colon ([1]; following the DSS challenge): no major lesions
adverse effects throughout the duration of the study [2]: No adverse effects were observed
macroscopic and histologic analysis of liver, kidneys and brain [2]: no abnormalities
colonic lymph nodes: CD3^+ T cells [3]: 10.24 ± 0.85
colonic lymph nodes: CD4^+ T cells [3]: 6.65 ± 0.58
colonic lymph nodes: CD8^+ T cells [3]: 4.53 ± 0.41
colonic lymph nodes: CD19^+ T cells [3]: 5.98 ± 0.72
colonic lymph nodes: Lymphocytes [3]: 18.64 ± 1.53 ×10^6/mL
colonic lymph nodes: TCR αβ^+T cells [3]: 11.78 ± 1.08
colonic lymph nodes: Weight [3]: 261.66 mg
colonic lymph nodes: Weight ([3]; listed as Punicic Acid): 261.66 ± 3.28 mg
spleen: CD3^+ T cells [4]: 30.05 ± 1.78
spleen: CD4^+ T cells [4]: 17.04 ± 1.10
spleen: CD8^+ T cells [4]: 12.72 ± 0.73
spleen: CD19^+ T cells [4]: 102.22 ± 5.42
spleen: TCR αβ^+T cells [4]: 33.12 ± 1.93
spleen: Total # of lymphocytes [4]: 144.21 ± 7.13 ×10^6/mL
spleen: Weight [4]: 884.54 ± 3.30 mg
thymus: CD4^+ thymocytes [5]: 2.51 ± 0.28
thymus: CD4^+CD8^+ thymocytes [5]: 63.25 ± 8.73
thymus: CD8^+ thymocytes [5]: 1.34 ± 0.18
thymus: Lymphocytes [5]: 69.18 ± 9.56 ×10^6/mL
thymus: TCR αβ^+ thymocytes [5]: 9.12 ± 1.21
thymus: Weight [5]: 845.00 ± 4.68 mg
Counts/minute lymph nodes (cRPMI & ConA) [6, 14]: 929.06 ± 161.10 Counts/minute
Stimulation index lymph nodes [6, 15]: 22.40 ± 3.61
Counts/minute lymph nodes (cRPMI) [6, 16]: 43.12 ± 3.76 Counts/minute
Counts/minute spleen (cRPMI & ConA) [7, 14]: 1905.27 ± 254.42 Counts/minute
Stimulation index spleen [7, 15]: 25.20 ± 3.16
Counts/minute spleen (cRPMI) [7, 16]: 73.17 ± 10.96 Counts/minute
Brown adipose tissue (interscapular) weight ([8]; High Fat Diets): 0.124 g
White adipose tissue (abdominal) weight ([8]; High Fat Diets): 0.830^b g
plasma fasting Glucose ([8]; High Fat Diets): 219.5^b mg/dL
plasma fasting Insulin ([8]; High Fat Diets): 1.229^b ng/mL
Brown adipose tissue (interscapular) weight ([8]; Regular Diets): 0.138 g
White adipose tissue (abdominal) weight ([8]; Regular Diets): 0.801^b g
plasma fasting Glucose ([8]; Regular Diets): 121.40^b mg/dL
plasma fasting Insulin ([8]; Regular Diets): 0.669^b ng/mL
glucose tolerance versus control diet ([9]; high fat diets): normalizes impaired glucose tolerance
glucose tolerance versus control diet ([9]; regular diets): not different
fatty liver or enlarged viscera [10]: not observed
Relative Proliferation Index B cells [11]: 1.15 ± 0.63 and 1.16 ± 0.27
Relative Proliferation Index CD4^+ T cells [11]: 0.68 ± 0.48 and 1.10 ± 0.63
H&E histology of brain, kidneys, liver, heart and lungs [12]: no microscopic lesions
adverse effects or clinical signs throughout the study [12]: No negative adverse effects
